Data reported in PMC12648443, “Modifications of NU-9, a potent protein aggregation inhibitor. Properties and activity in a cellular model of amyotrophic lateral sclerosis” (Bioorganic chemistry, 2025).

Tests used:
[1] = In vitro cytotoxicity, CellTiter-Glo, HEK293; type: cell-based; conditions: human, HEK293 cells; for viability at 24 h, 30 μM / viability at 48 h, 30 μM: relative to untreated cells, read-out: Percentage of viable cells observed at 30 μM treatment, HEK293; for EC50 at 24 h / EC50 at 48 h: cytotoxicity
Procedure: The HepG2 and HEK293 cells were cultured in DMEM media supplemented with 10 % FBS (heat-inactivated), 1 % Pen-strep, and L-glutamine and incubated at 37 °C in humidified air with 5 % CO2 until 85–90 % confluency. The PC12 Tet-Off-SOD1^G85R YFP cells were maintained as described in 4.2. On the day before the experiments, the cells were transferred to white bottom 96 well plates (Greiner cat. 655,083) at a concentration of 50,000 cells/100 μL of media in each well and incubated overnight at 37 °C. Stock solutions of the compounds (30 mM) in DMSO were prepared and then diluted in media to obtain the six final working solutions starting at 30 μM, and serial dilutions were obtained with the lowest concentration at 0.25 μM. The media were removed and fresh media containing the compounds or the vehicle DMSO (0.1 % v/v) were transferred to the plates containing HepG2 and HEK293 cells and the plates were incubated for 24 or 48 h at 37 °C. The PC12 Tet-Off-SOD1^G85R YFP cells compound treatment was performed as described in section 4.2 and using a 9-point 2-fold serial dilution of the compounds starting at 15 μM and the lowest concentration at 0.05 μM. After incubation, the plates were cooled to room temperature and 25 μL of CellTiter-Glo® solution was added to each well. The plates were loaded into a BioTek Synergy H1 MD plate reader and shaken for 2 min, stabilized for 10 min without shaking, and then the luminescence values were read for each well (luminescence integration step 1 ms). Wells containing media with the vehicle DMSO with or without cells were used as controls to represent, respectively, the maximum viability and the lowest viability (background signal) for the cytotoxicity studies with HepG2 and HEK293 cell lines. The viability values for the assay performed with the PC12 Tet-Off-SOD1^G85R YFP cells were normalised for the vehicle (0.1 % DMSO) and (−)-MG-132 alone treatments, which represented respectively the […] viability for the assay.
The results are presented as an average of three independent experiments, each performed in triplicate, for the cytotoxicity experiments performed with HepG2 and HEK293 cells. The results for the protective screening with the PC12 Tet-Off-SOD1^G85R YFP cells are presented as an average of four replicates.

HT22 hippocampal cells = test: DAPRed autophagy dye live cell imaging; type: cell-based, mouse; conditions: 3 μM, 5 h treatment, bafilomycin 0.1 μM in the last 3 h
Procedure: HT22 immortalized mouse hippocampal neuronal cell line was maintained in DMEM supplemented with 10% FBS and 1% penicillin-streptomycin under standard conditions (37 °C, 5% CO2). On the day before the experiment, HT22 cells were transferred to a sterile poly-D-lysine-coated Nunc™ Lab-Tek™ II Chambered Coverglass (8 wells; Thermo Fisher Sci. cat. 155,409) at a concentration of 40,000 cells/300 μL of media in each well and incubated overnight at 37 °C. Stock solutions of Torin-1 (10 mM) and 20 (10 mM) were prepared in DMSO and then diluted in media to obtain the final treatment solutions at 0.2 and 3 μM, respectively. The media was removed, the cells were quickly washed with 1×PBS solution, and fresh media containing the compounds or the DMSO (0.1 % v/v) were transferred to the wells. The plates were incubated for 2 h. The media was removed, and after washing once with 1×PBS, fresh media containing Bafilomycin (0.1 μM), DAPRed dye (0.25 μM) and Hoescht 33,342 (55 μg/mL) was added to the wells and the cells were incubated for 3 h at 37 °C. […] Puncta structures >0.2 μm were then identified using Otsu thresholding and the results represented as particles per cell for each set of images analyzed. […] The statistical differences between two or more groups were determined by One-way ANOVA followed by Sidak post-hoc multiple-comparison test. […]

| Structure (SMILES) | viability at 24 h, 30 μM [1] [%] | viability at 48 h, 30 μM [1] [%] | EC50 at 24 h [1] [µM] | EC50 at 48 h [1] [µM] | DAPRed fluorescence signal (autophagy flux) compared to vehicle (HT22 hippocampal cells) |
| --- | --- | --- | --- | --- | --- |
| O=C1CC(=O)CC(/C=C/c2cc(C(F)(F)F)cc(C(F)(F)F)c2)C1 [Compound 6, (E)-5-(3,5-Bis(trifluoromethyl)styryl)cyclohexane-1,3-dione] | 82.6 | 89.6 | > 30 | > 30 | – |
| CC(C)(Oc1cc(C(F)(F)F)cc(C(F)(F)F)c1)C1CC(=O)CC(=O)C1 [Compound 20, 5-(2-(3,5-bis(trifluoromethyl)phenoxy)propan-2-yl)cyclohexane-1,3-dione] | 90 | 91.6 | > 30 | > 30 | increasing DAPRed fluorescence signal |
